Results taken from ChEMBL document CHEMBL1201862, “PubChem BioAssay data set” (2004).
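Briefly, cells in 96-well plates were exposed to five compound concentrations for 48 h, and endpoints were estimated by linear interpolation. Abbreviation: GI50, concentration required for 50% inhibition of growth.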 Active and inactive are the calls of the source. Cut-off read from the data, not from the text of the source: active = GI50 up to about 1.1 µM and inactive = higher.

Assays:
Experiment in all cases: inhibition of tumour cell growth, NCI panel, 48 h
HCT-15 = test system: HCT-15
SK-MEL-28 = test system: SK-MEL-28
MDA-N = test system: MDA-N
LOX IMVI = test system: LOX IMVI
NCI-H522 = test system: NCI-H522
SR = test system: SR
UO-31 = test system: UO-31
NCI-H23 = test system: NCI-H23
HOP-62 = test system: HOP-62
SK-OV-3 = test system: SK-OV-3
HT-29 = test system: HT-29
NCI-H226 = test system: NCI-H226
BT-549 = test system: BT-549
SF-539 = test system: SF-539
U-251 = test system: U-251
SNB-19 = test system: SNB-19
SF-295 = test system: SF-295
OVCAR-4 = test system: OVCAR-4
SW-620 = test system: SW-620

With `Cn1c2c(c3c(=O)[nH]ncc31)Cc1ccccc1-2` the GI50 (HCT-15) was 11.1 µM, the GI50 (SK-MEL-28) was 24.4 µM (inactive) and the GI50 (MDA-N) was 12.9 µM (inactive). For the same compound, the GI50 (LOX IMVI) was 6.65 µM (inactive), the GI50 (NCI-H522) was 17.8 µM (inactive) and the GI50 (SR) was 3.79 µM (inactive). For the same compound, the GI50 (UO-31) was 5.53 µM (inactive), the GI50 (NCI-H23) was 24.3 µM (inactive) and the GI50 (HOP-62) was 22.5 µM (inactive). For the same compound, the GI50 (SK-OV-3) was 6.49 µM (inactive), the GI50 (HT-29) was 9.64 µM (inactive) and the GI50 (NCI-H226) was 13.8 µM (inactive). For the same compound, the GI50 (BT-549) was 18.3 µM (inactive), the GI50 (SF-539) was 19.2 µM (inactive) and the GI50 (U-251) was 13.5 µM (inactive). For the same compound, the GI50 (SNB-19) was 18.2 µM (inactive), the GI50 (SF-295) was 4.33 µM (inactive) and the GI50 (OVCAR-4) was 21.3 µM (inactive). The GI50 (SW-620) was 7.24 µM (inactive).
With `COc1ccc(-c2c(N)n(-c3cccc(C(=O)O)c3)c(=O)c3cc([N+](=O)[O-])ccc23)cc1` the GI50 (HCT-15) was over 100 µM, the GI50 (SK-MEL-28) was > 100 µM (inactive) and the GI50 (MDA-N) was > 100 µM (inactive). For the same compound, the GI50 (LOX IMVI) was > 100 µM (inactive), the GI50 (NCI-H522) was > 100 µM (inactive) and the GI50 (SR) was > 100 µM (inactive). The GI50 (UO-31) was > 100 µM (inactive), the GI50 (NCI-H23) was > 100 µM (inactive) and the GI50 (HOP-62) was > 100 µM (inactive). The GI50 (SK-OV-3) was > 100 µM (inactive), the GI50 (HT-29) was > 100 µM (inactive) and the GI50 (NCI-H226) was > 100 µM (inactive). For the same compound, the GI50 (BT-549) was > 100 µM (inactive), the GI50 (SF-539) was > 100 µM (inactive) and the GI50 (U-251) was > 100 µM (inactive). For the same compound, the GI50 (SNB-19) was > 100 µM (inactive), the GI50 (SF-295) was > 100 µM (inactive) and the GI50 (OVCAR-4) was > 100 µM (inactive). For the same compound, the GI50 (SW-620) was > 100 µM (inactive).
In the case of `CCOc1cnc(C(O)(c2ccccc2)c2ccccc2)o1`, the GI50 (HCT-15) is reported as 77.1 µM, the GI50 (SK-MEL-28) is reported as > 100 µM (inactive) and the GI50 (MDA-N) is reported as > 100 µM (inactive). The GI50 (LOX IMVI) was 69.7 µM (inactive), the GI50 (NCI-H522) was > 100 µM (inactive) and the GI50 (SR) was > 100 µM (inactive). For the same compound, the GI50 (UO-31) was > 100 µM (inactive), the GI50 (NCI-H23) was > 100 µM (inactive) and the GI50 (HOP-62) was > 100 µM (inactive). For the same compound, the GI50 (SK-OV-3) was > 100 µM (inactive), the GI50 (HT-29) was > 100 µM (inactive) and the GI50 (NCI-H226) was > 100 µM (inactive). The GI50 (BT-549) was > 100 µM (inactive), the GI50 (SF-539) was > 100 µM (inactive) and the GI50 (U-251) was > 100 µM (inactive). The GI50 (SNB-19) was > 100 µM (inactive), the GI50 (SF-295) was > 100 µM (inactive) and the GI50 (OVCAR-4) was > 100 µM (inactive). The GI50 (SW-620) was > 100 µM (inactive).
`CC(C)=CCNc1ncnc2c1ncn2CCC#N` was tested, and the GI50 (HCT-15) was over 100 µM, the GI50 (SK-MEL-28) was > 100 µM (inactive) and the GI50 (MDA-N) was > 100 µM (inactive). The GI50 (LOX IMVI) was > 100 µM (inactive), the GI50 (NCI-H522) was > 100 µM (inactive) and the GI50 (SR) was > 100 µM (inactive). The GI50 (UO-31) was > 100 µM (inactive), the GI50 (NCI-H23) was > 100 µM (inactive) and the GI50 (HOP-62) was > 100 µM (inactive). For the same compound, the GI50 (SK-OV-3) was > 100 µM (inactive), the GI50 (HT-29) was > 100 µM (inactive) and the GI50 (NCI-H226) was > 100 µM (inactive). For the same compound, the GI50 (BT-549) was > 100 µM (inactive), the GI50 (SF-539) was > 100 µM (inactive) and the GI50 (U-251) was > 100 µM (inactive). The GI50 (SNB-19) was > 100 µM (inactive), the GI50 (SF-295) was > 100 µM (inactive) and the GI50 (OVCAR-4) was 45.1 µM (inactive). The GI50 (SW-620) was > 100 µM (inactive).
